Results reported in publication PMC10541198, “Specific quinone reductase 2 inhibitors reduce metabolic burden and reverse Alzheimer’s disease phenotype in mice” (The Journal of Clinical Investigation, 2023).
Several values for one entry are separate records, joined by “and”; a condition that tells them apart may be missing. Equal values may be shown once.

Columns and labels:
4-HNE = experiment: IHC of 4-HNE in 5xFAD brain sections; format: in vivo, mouse; parameters: 4-HNE upper quartile / 4-HNE lower quartile: unit not given here; conditions: for 4-HNE distribution (F test) / 4-HNE lower quartile / 4-HNE normalized volume (individual mice) / 4-HNE upper quartile: CA1, 5xFAD 1 month; for Figure 9A, IHC signal / Sup. Fig. 6-1A, IHC signal: individual animals; for 4-HNE vs vehicle: cortex, 5xFAD 1 month
Text: Following the behavioral experiments, we assessed brain pathologies associated with AD present in the 5xFAD mice ([37]). Therefore, 5 days following the last behavioral experiment, and 1 month after the start of YB-537 consumption, mice were sacrificed, and coronal brain sections were used for IHC. Since the CA1 region of the hippocampus is affected during AD pathogenesis ([37]), and this brain region is involved in the behavioral paradigms used here, we acquired images of CA1. This was done with an Olympus IX83 confocal microscope using the same settings, antibodies, and exposures in all mice. Images were analyzed using Imaris (Bitplane; see methods). For each mouse, 3 coronal sections were used per antibody. In each section, the same region of CA1 was acquired, using the same image frame size and resolution, at all possible depths of the section — using a Z-stack of the whole section — to allow measurement of the fluorescent antibody marker volume, which was normalized to the brain volume from which it was taken. First, we measured oxidative stress, as indicated by 4-HNE ([38]) (Abcam, ab48506).
Perfused and fixed brain slices were blocked with 10% normal donkey serum (DNS) and 0.2% triton (Sigma-Aldrich) in PBS. Antibodies, including 4-HNE (AbCam, ab48506), Iba1 (AbCam, ab5076), AT-8 (Thermo, MN1020), Amyloid β (AbCam, ab201060), diluted in PBS with 10% DNS, were incubated at 4°C overnight. Secondary antibodies including donkey-anti-goat Alexa Fluor 568 (AbCam, ab175704), donkey-anti-mouse Cy 5 (Jackson Immuno Research, 715-175-151), and donkey-anti-rabbit DyLight 488 (AbCam, ab98488) all diluted 1:500 in PBS with 1% BSA, were applied to the slices at RT for 2 hours the next day. Slices were mounted onto glass slides using DAPI containing Vectashield (H-1200). Images were taken using a confocal microscope (Olympus IX83). Three slices were used per mouse per antibody. Tiling images of the dorsal CA1 and cortex (Bregma: –1.58mm to –2.30mm) were taken using ×20 objective, acquiring a Z-stack of the whole section. Analysis of the images was done blind by an experimenter unaware of the experimental conditions or details, using Imaris (Bitplane) software. A surface reconstruction module was used to extract the data as volumes of the used markers (4-HNE, phospho-tau, amyloid β, GFAP, and Iba1). Marker volume and intensity were normalized to the corresponding brain volume. The normalized value was averaged for each triplicate and presented here. […]
Brains were then briefly removed and placed in chilled, 4% PFA for 48 h, f oll owe d by immersion in 30% sucrose in 0.1 M PBS for a furt her 48 h. Bra i ns wer e t h e n stored at -80°C, until t he y were sliced into 40µm coronal sections usinga Lei ca CM 1950cryostat. Sli ces were then washed x3 in PBS and bl oc ke d for 1 h at RT using 10% normal donkey serum (DNS) and 0.2% triton (Sigma-Aldrich) in PBS. Antibodies, including 4- HNE (1:500, AbCam, ab48506), Iba1 (1:2,000, AbCam, ab5076), GFAP (Abcam, ab53554), phospho- tau (1:1,000, Thermo, MN1020) and amyloid β (1:1,000, AbCam, ab201060) diluted in PBS with 10% DNS were incubated at 4°C overnight. The next day, the slices were washed x3 times in PBS, and secondary antibodies including donkey anti goat A l e x a Fluor 568 (AbCam, ab175704), donkey anti-mouse Cy 5 (Jackson Immuno Research, 715- 175- 151) and donkey anti-rabbit DyLight 488 (AbCam, ab98488) all diluted 1:500 in PBS with 1% BSA, were applied to the slices at RT for 2 h. Following the incubation, the slices were washed x3 times in PBS, mounted onto gl ass slides, were uniformly covered in DAPI containing Vectashield (H-1200) and coverslips were a dde d. […]

5xFAD mice = experiment: Open field in 5xFAD mice; format: in vivo, mouse; conditions: for hind-limb rearing frequency / maximum movement bout duration / meandering / proportion of time moving / total distance traveled / total movement duration / average velocity: 5xFAD 1 month; for Sup. Fig. 5-2C, open field parameter / Sup. Fig. 5-2D, open field parameter / Sup. Fig. 5-2E, open field parameter / Sup. Fig. 5-2F, open field parameter / Sup. Fig. 5-2G, open field parameter / Sup. Fig. 5-2H, open field parameter / Sup. Fig. 5-2I, open field parameter: individual animals
Description: Mice were individually placed within a cage and taken to a dimly lit room containing an open field arena 50 x 50 cm in size. They were gi ve n 10 min prior to be i ng placed within the arena, where f or a period of 5 min they were allowed to explore. Two weeks later, this was repeated. The mice were filmed with an Ikegami ICD-49E camera with EthoVision 14 (Noldus Information Technology). Th e fl oor was ei ther whit e or black,dependingon mous e coat c ol or, to allow automatic analysisof movement par am et ers, apar t from rearing which was manually counted. […]

SMILES: Cc1ccc(-c2cn3cccc(C)c3n2)cc1S(=O)(=O)N1CCNCC1 [YB-537]
- 4-HNE distribution (F test) (4-HNE; Females): significantly changes distribution
- 4-HNE lower quartile (4-HNE; Females): 0.0409
- 4-HNE normalized volume (individual mice) (4-HNE; Females): 0.0514 and 0.0389 and 0.0542 and 0.0413 and 0.0409 and 0.0433 and 0.0449
- 4-HNE upper quartile (4-HNE; Females): 0.0514
- 4-HNE normalized volume (individual mice) (4-HNE; Males): 0.0457 and 0.0892 and 0.0543 and 0.0490 and 0.0489 and 0.0313 and 0.0587 and 0.0539 and 0.0508
- 4-HNE normalized volume (individual mice) (4-HNE; Males + Females): 0.0514 and 0.0389 and 0.0542 and 0.0313 and 0.0587 and 0.0539 and 0.0508 and 0.0457 and 0.0892 and 0.0543 and 0.0490 and 0.0489 and 0.0413 and 0.0409 and 0.0433 and 0.0449
- 4-HNE lower quartile (4-HNE; both sexes): 0.0418
- 4-HNE upper quartile (4-HNE; both sexes): 0.0541
- 4-HNE distribution (F test) (4-HNE; total population): tends to alter distribution
- Figure 9A, IHC signal (4-HNE; Cortex): 0.0148 and 0.0125 and 0.0103 and 0.0159 and 0.0128 and 0.0161 and 0.0104 and 0.0145 and 0.0118
- Sup. Fig. 6-1A, IHC signal (4-HNE; Females): 0.0214 and 0.0277 and 0.0236 and 0.0333 and 0.0429 and 0.0318 and 0.0155
- Figure 9A, IHC signal (4-HNE; Hippocampus): 0.0222 and 0.0139 and 0.0101 and 0.0187 and 0.0170 and 0.0160 and 0.0186 and 0.0121 and 0.0197
- Sup. Fig. 6-1A, IHC signal (4-HNE; Males + Females): 0.0231 and 0.0112 and 0.0400 and 0.0392 and 0.0271 and 0.0198 and 0.0429 and 0.0318 and 0.0155 and 0.0214 and 0.0277 and 0.0236 and 0.0333 and 0.0301 and 0.0174 and 0.0275
- Sup. Fig. 6-1A, IHC signal (4-HNE; Males): 0.0231 and 0.0112 and 0.0400 and 0.0392 and 0.0271 and 0.0198 and 0.0301 and 0.0174 and 0.0275
- 4-HNE vs vehicle (4-HNE; females): not significantly altered
- 4-HNE vs vehicle (4-HNE; males): not significantly altered
- 4-HNE vs vehicle (4-HNE; total population): not significantly altered
- hind-limb rearing frequency (5xFAD mice; both sexes): 35.72 ± 3.292
- maximum movement bout duration (5xFAD mice; both sexes): 8.061 ± 1.322 s
- meandering (5xFAD mice; both sexes): 733.4 ± 42.8 deg/cm
- proportion of time moving (5xFAD mice; both sexes): 81.44 ± 1.134%
- total distance traveled (5xFAD mice; both sexes): 3244 ± 237.9 cm
- total movement duration (5xFAD mice; both sexes): 244.3 ± 3.402 s
- average velocity (5xFAD mice; both sexes, n=16): 10.9 ± 0.800 cm/s
- hind-limb rearing frequency (5xFAD mice; females): 35.29 ± 4.894
- maximum movement bout duration (5xFAD mice; females): 9.677 ± 3.012 s
- meandering (5xFAD mice; females): 696.3 ± 65.26 deg/cm
- proportion of time moving (5xFAD mice; females): 81.84 ± 1.856%
- total distance traveled (5xFAD mice; females): 3581 ± 484.5 cm
- total movement duration (5xFAD mice; females): 245.5 ± 5.568 s
- average velocity (5xFAD mice; females, n=7): 12.03 ± 1.625 cm/s
- hind-limb rearing frequency (5xFAD mice; males): 36.06 ± 4.703
- maximum movement bout duration (5xFAD mice; males): 6.804 ± 0.2919 s
- meandering (5xFAD mice; males): 762.2 ± 58.17 deg/cm
- proportion of time moving (5xFAD mice; males): 81.13 ± 1.5%
- total distance traveled (5xFAD mice; males): 2983 ± 179.3 cm
- total movement duration (5xFAD mice; males): 243.4 ± 4.5 s
- average velocity (5xFAD mice; males, n=9): 10.01 ± 0.611 cm/s
- Sup. Fig. 5-2C, open field parameter (5xFAD mice; Females): 10.98 and 10.27 and 10.24 and 21.02 and 13.07 and 7.45 and 11.20
- Sup. Fig. 5-2D, open field parameter (5xFAD mice; Females): 3256.8 and 3049.8 and 3043.6 and 6259.0 and 3891.4 and 2217.1 and 3346.6
- Sup. Fig. 5-2E, open field parameter (5xFAD mice; Females): 773.0 and 764.4 and 714.5 and 402.2 and 601.2 and 962.5 and 656.3
- Sup. Fig. 5-2F, open field parameter (5xFAD mice; Females): 6.70 and 6.10 and 6.62 and 27.48 and 6.06 and 5.20 and 9.58
- Sup. Fig. 5-2G, open field parameter (5xFAD mice; Females): 244.56 and 241.26 and 242.64 and 269.82 and 249.06 and 220.20 and 251.04
- Sup. Fig. 5-2H, open field parameter (5xFAD mice; Females): 81.52 and 80.42 and 80.88 and 89.94 and 83.02 and 73.40 and 83.68
- Sup. Fig. 5-2I, open field parameter (5xFAD mice; Females): 50 and 30.5 and 32 and 31.5 and 55 and 17 and 31
- Sup. Fig. 5-2C, open field parameter (5xFAD mice; Males + Females): 10.98 and 10.27 and 10.24 and 21.02 and 7.23 and 10.34 and 8.54 and 12.00 and 10.63 and 9.25 and 12.61 and 11.34 and 8.16 and 13.07 and 7.45 and 11.20
- Sup. Fig. 5-2D, open field parameter (5xFAD mice; Males + Females): 3256.8 and 3049.8 and 3043.6 and 6259.0 and 2163.2 and 3078.1 and 2557.7 and 3556.2 and 3161.5 and 2756.6 and 3753.0 and 3376.0 and 2440.2 and 3891.4 and 2217.1 and 3346.6
- Sup. Fig. 5-2E, open field parameter (5xFAD mice; Males + Females): 773.0 and 764.4 and 714.5 and 402.2 and 993.0 and 822.7 and 744.6 and 500.6 and 644.6 and 955.7 and 543.5 and 756.2 and 899.4 and 601.2 and 962.5 and 656.3
- Sup. Fig. 5-2F, open field parameter (5xFAD mice; Males + Females): 6.70 and 6.10 and 6.62 and 27.48 and 6.46 and 7.38 and 6.24 and 6.00 and 7.90 and 5.98 and 6.32 and 8.40 and 6.56 and 6.06 and 5.20 and 9.58
- Sup. Fig. 5-2G, open field parameter (5xFAD mice; Males + Females): 244.56 and 241.26 and 242.64 and 269.82 and 228.20 and 238.00 and 244.72 and 264.44 and 254.26 and 226.58 and 258.62 and 243.36 and 232.42 and 249.06 and 220.20 and 251.04
- Sup. Fig. 5-2H, open field parameter (5xFAD mice; Males + Females): 81.52 and 80.42 and 80.88 and 89.94 and 76.07 and 79.33 and 81.57 and 88.15 and 84.75 and 75.53 and 86.21 and 81.12 and 77.47 and 83.02 and 73.40 and 83.68
- Sup. Fig. 5-2I, open field parameter (5xFAD mice; Males + Females): 50.0 and 30.5 and 32.0 and 31.5 and 12.5 and 27.5 and 35.0 and 60.5 and 43.0 and 34.0 and 45.0 and 44.0 and 23.0 and 55.0 and 17.0 and 31.0
- Sup. Fig. 5-2C, open field parameter (5xFAD mice; Males): 12.00 and 10.63 and 9.25 and 12.61 and 11.34 and 8.16 and 7.23 and 10.34 and 8.54
- Sup. Fig. 5-2D, open field parameter (5xFAD mice; Males): 3556.2 and 3161.5 and 2756.6 and 3753.0 and 3376.0 and 2440.2 and 2163.2 and 3078.1 and 2557.7
- Sup. Fig. 5-2E, open field parameter (5xFAD mice; Males): 500.6 and 644.6 and 955.7 and 543.5 and 756.2 and 899.4 and 993.0 and 822.7 and 744.6
- Sup. Fig. 5-2F, open field parameter (5xFAD mice; Males): 6.00 and 7.90 and 5.98 and 6.32 and 8.40 and 6.56 and 6.46 and 7.38 and 6.24
- Sup. Fig. 5-2G, open field parameter (5xFAD mice; Males): 264.44 and 254.26 and 226.58 and 258.62 and 243.36 and 232.42 and 228.20 and 238.00 and 244.72
- Sup. Fig. 5-2H, open field parameter (5xFAD mice; Males): 88.15 and 84.75 and 75.53 and 86.21 and 81.12 and 77.47 and 76.07 and 79.33 and 81.57
- Sup. Fig. 5-2I, open field parameter (5xFAD mice; Males): 60.5 and 43 and 34 and 45 and 44 and 23 and 12.5 and 27.5 and 35
